{"source": "patent US9345243B2", "about": "“Chemicals composition for reducing stress on plant” (Nippon Soda Co., Ltd., priority 2012, dated 2016)"}
{"tested_on": "Cucumber (breed: Sagamihanjiro)", "assay": "Relief effects of salt injury on cucumber (Test Example 8)", "settings": "spray, 0.1% sodium chloride irrigation from 3 days, above ground raw weight at 20 days, ascorbyl palmitate 600 ppm, imidacloprid 50 ppm, pymetrozine 100 ppm, cyenopyrafen 150 ppm, pyraclostrobin 50 ppm, normal irrigation = 100", "units": {"relief percents of injury (%)": "%"}, "experimental": "Cucumber (breed: Sagamihanjiro, 2 replications) hydroponically grown up to the 1.5 leaf stage in a greenhouse was prepared.\nA water dispersible granule of 30% ascorbyl palmitate and a commercially available product containing the substance (B) described in Table 14 were diluted with tap water into a concentration described in Table 14, and the diluted solution was sprayed over the nursery plats in a sufficient amount. After air dried, they were cultivated in a greenhouse with normal irrigation. Irrigation was changed to 0.1% aqueous sodium chloride solution at the elapsed time of 3 days after the spraying, and cultivated. The raw weight of an above ground part was measured at the elapsed time of 20 days after the spraying. From this, injury relief percentages were computed by the following formula."}
{"smiles": "CCCCCCCCCCCCCCCC(=O)OC[C@H](O)[C@H]1OC(=O)C(O)=C1O", "note": "[ascorbyl palmitate]", "relief percents of injury (%)": 53}
{"smiles": "COC(=O)N(OC)c1ccccc1COc1ccn(-c2ccc(Cl)cc2)n1", "note": "[Pyraclostrobin]", "relief percents of injury (%)": 77}
{"smiles": "CC1=NNC(=O)N(/N=C/c2cccnc2)C1", "note": "[Pymetrozine]", "relief percents of injury (%)": 53}
{"smiles": "O=[N+]([O-])NC1=NCCN1Cc1ccc(Cl)nc1", "note": "[Imidacloprid]", "relief percents of injury (%)": 33}
{"smiles": "Cc1nn(C)c(/C(OC(=O)C(C)(C)C)=C(\\C#N)c2ccc(C(C)(C)C)cc2)c1C", "note": "[cyenopyrafen]", "relief percents of injury (%)": 51}
{"tested_on": "Tomato (breed: Momotaro)", "assay": "Relief effects of high temperature injury on tomato (Test Example 3)", "settings": "spray, 40° C. daylight / 30° C. dark, 4 days, ascorbyl palmitate 600 ppm, thiophanate-methyl 467 ppm, boscalid 333 ppm, cyflufenamid 17 ppm + triflumizole 75 ppm", "units": {"relief percents of injury (%)": "%"}, "experimental": "Tomato (breed: Momotaro, 2 replications) grown up to the 4 leaf stage in a greenhouse was prepared.\nA water dispersible granule of 30% ascorbyl palmitate and a commercially available agent containing the substance (B) as described in Table 8 were diluted with tap water into a concentration described in Table 8, and the diluted solution was sprayed over the whole nursery plants in a sufficient amount. After air dried, they were allowed to grow under cycle conditions of 16 hours under a daylight condition at 40° C. and 8 hours under a dark condition at 30° C. The degree of disorders was investigated at an elapsed time of 4 days after the spraying.\nThe degree of necrosis due to high temperature was evaluated by 11 levels of disorder indices from 0 (no necrosis) to 10 (withering to death). From this, the injury relief percentages were computed by the following formula."}
{"smiles": "COC(=O)NC(=S)Nc1ccccc1NC(=S)NC(=O)OC", "note": "[Thiophanate-methyl]", "relief percents of injury (%)": 40}
{"smiles": "CCCCCCCCCCCCCCCC(=O)OC[C@H](O)[C@H]1OC(=O)C(O)=C1O", "note": "[ascorbyl palmitate]", "relief percents of injury (%)": 40}
{"smiles": "O=C(Nc1ccccc1-c1ccc(Cl)cc1)c1cccnc1Cl", "note": "[Boscalid]", "relief percents of injury (%)": 40}
